Source: patent EP2233463A1, “NEW COMPOUNDS ISOLATED FROM EXTRACT OF ANTRODIA CAMPHORATA” (Golden Biotechnology Corporation, priority 2007, dated 2009)
In brackets after ≈: the same amount, converted by molar mass.

Experiments:
Assay type in all cases: cell-based
[1] = tested on: human breast-cancer cells, MCF-7; experiment: Ex vivo survival assay (MTT) for anti-breast cancer effects, MCF-7; settings: for IC50 value lower than that of crude extracts from A. camphorata: MCF-7, relative to crude extracts (11.13 µg/ml); for IC50(µg/ml) MCF-7: MCF-7 cells, 48 hours incubation, MTT, 570 nm
Protocol: (§1) The NCI anti-cancer drug screen model was adopted to test the anti-cancer effect of the isolated compounds from example 1 in the present invention. The isolated Antroquinonol B and Antroquinonol C from example 1 were added into the culture media of human breast-cancer cells, MCF-7 or MDA-MB-231, to test for tumor cell survival. This survival assay was carried out with the widely known MTT (3-[4,5-dimethylthiazol-2-yl]2,5-diphenyltetrazolium bromide) assay. MCF-7 cell line is originated from primary breast cancer cells (early stage), sensitive to estrogen and therefore is estrogen-dependent, while MDA-MB-231 is insensitive to estrogen and therefore is estrogen-independent, which is a difficult tumor with a low survival rate. MTT assay is commonly used to determine cell proliferation, percent of viable cells, and cytotoxicity. 3-[4,5-dimethylthiazol-2-yl]2,5-diphenyltetrazolium bromide (MTT) is a yellow dye, which can be absorbed by the living cells and be reduced to purplish blue formazan crystals by succinate tetrazolium reductase in mitochondria. Formazan formation can therefore be used to assess and determine the survival rate of cells. The human breast-cancer cells, MCF-7 (purchased from the Bioresources Collection and Research Center (BCRC) with the accession number of BCRC60436) and MDA-MB-231 (purchased from National Health Research Institutes (NHRI) with the accession number of CCRC 60425) were cultivated in media containing fetal calf serum for 24 hours. The proliferated cells were washed once with PBS, then treated with 1x trypsin-EDTA and centrifuged at 1200 rpm for 5 minutes. The supernatant was discarded and the cell pellet was resuspended in 10 ml of fresh culture medium by gently shaking. The cells were placed in a 96-well plate. Total ethanol extracts of Antrodia camphorata without purification (the control group), Antroquinonol B or Antroquinonol C (the experimental group) were added into each of the 96 wells at the following concentrations: 30, 10, 3, 1, 0.3, 0.1 and 0.03 µg/ml, respectively. The cells were incubated at 37°C in a 5% CO2 incubator for 48 hours. MTT was added in a concentration of 2.5 mg/ml into each well in dark and incubated for 4 hours, followed by the addition of 100 µl of lysis buffer to stop the reaction. The plates were read on an ELISA reader at wavelength of 570 nm to determine the survival rates. Table 1 Results of ex vivo survival assay for inhibition of breast cancer cells

[2] = tested on: human breast-cancer cells, MDA-MB-231; experiment: Ex vivo survival assay (MTT) for anti-breast cancer effects, MDA-MB-231; settings: for IC50 value lower than that of crude extracts from A. camphorata: MDA-MB-231, relative to crude extracts (25.81 µg/ml); for IC50(µg/ml) MDA-MB-231: MDA-MB-231 cells, 48 hours incubation, MTT, 570 nm
Protocol: as §1

[3] = tested on: human lung cancer cell A549; experiment: Ex vivo survival assay (MTT) for anti-lung cancer effects, A549; settings: for IC50 value lower than that of crude extracts from A. camphorata: A549, relative to crude extracts (13.21 µg/ml); for IC50 ( µg/ml ) A549: A549 cells, 48 hours incubation, MTT, 570 nm
Text: MTT assay is commonly used to determine cell proliferation, percent of viable cells, and cytotoxicity. 3-[4,5-dimethylthiazol-2-yl]2,5-diphenyltetrazolium bromide (MTT) is a yellow dye, which can be absorbed by the living cells and be reduced to purplish blue formazan crystals by succinate tetrazolium reductase in mitochondria. Formazan formation can therefore be used to assess and determine the survival rate of cells. The NCI anti-cancer drug screen model was also employed to test the anti-lung cancer effect of the Antroquinonol B and Antroquinonol C in the present invention. The Antroquinonols isolated from example 1 were added into the culture media of human lung cancer cell A549 with the abovementioned MTT assay to analyze lung cancer cell survival rates. Human lung cancer cell A549 was obtained from the Bioresources Collection and Research Center (BCRC) of the Food Industry Research and Development Institute with an accession number of BCRC 60074. A549 cells were cultivated in media containing fetal calf serum for 24 hours. The proliferated cells were washed once with PBS, then treated with 1x trypsin-EDTA and centrifuged at 1200 rpm for 5 minutes. The supernatant was discarded and the cell pellet was resuspended in 10 ml of fresh culture medium by gently shaking. The cells were placed in a 96-well plate. Total ethanol extracts of Antrodia camphorata without purification (the control group), Antroquinonol B or Antroquinonol C (the experimental group) were added into each of the 96 wells at the following concentrations: 30, 10, 3, 1, 0.3, 0.1 and 0.03 µg/ml, respectively. The cells were incubated at 37°C in a 5% CO2 incubator for 48 hours. MTT was added in a concentration of 2.5 mg/ml into each well in dark and incubated for 4 hours, followed by the addition of 100 µl of lysis buffer to stop the reaction. The plates were read on an ELISA reader at wavelength of 570 nm to determine the survival rates. Table 2 Results of ex vivo survival assay for inhibition of lung cancer cells

[4] = tested on: human hepatic-cancer cells, Hep 3B; experiment: Ex vivo survival assay (MTT) for anti-hepatic cancer effects, Hep 3B; settings: for IC50 ( µg/ml ) Hep3B: Hep 3B cells, 48 hours incubation, MTT, 570 nm; for IC50 value lower than that of crude extracts from A. camphorata: Hep 3B, relative to crude extracts (5.10 µg/ml)
Text: (§2) MTT assay is commonly used to determine cell proliferation, percent of viable cells, and cytotoxicity. 3-[4,5-dimethylthiazol-2-yl]2,5-diphenyltetrazolium bromide (MTT) is a yellow dye, which can be absorbed by the living cells and be reduced to purplish blue formazan crystals by succinate tetrazolium reductase in mitochondria. Formazan formation can therefore be used to assess and determine the survival rate of cells. The NCI anti-cancer drug screen model was employed to test the anti-cancer effect of the Antroquinonol B and Antroquinono C in the present invention. The Antroquinonos isolated from example 1 were added into the culture media of human hepatic-cancer cells, Hep 3B or Hep G2, for tumor cell survival assay. Hepatic-cancer cells Hep 3B (BCRC 60434) and Hep G2 (BCRC 60025), were obtained from the Bioresources Collection and Research Center (BCRC) of the Food Industry Research and Development Institute. The human hepatic-cancer cells, Hep 3B and Hep G2, were cultivated in media containing fetal calf serum for 24 hours. The proliferated cells were washed once with PBS, then treated with 1x trypsin-EDTA and centrifuged at 1200 rpm for 5 minutes. The supernatant was discarded and the cell pellet was resuspended in 10 ml of fresh culture medium by gently shaking. The cells were placed in a 96-well plate. Total ethanol extracts of Antrodia camphorata without purification (the control group), Antroquinonol B or Antroquinonol C (the experimental group) were added into each of the 96 wells at the following concentrations: 30, 10, 3, 1, 0.3, 0.1 and 0.03 µg/ml, respectively. The cells were incubated at 37°C in a 5% CO2 incubator for 48 hours. MTT was added in a concentration of 2.5 mg/ml into each well in dark and incubated for 4 hours, followed by the addition of 100 µl of lysis buffer to stop the reaction. The plates were read on an ELISA reader at wavelength of 570 nm to determine the survival rates. Table 3 Results of ex vivo survival assay for inhibition of hepatic cancer cells

[5] = tested on: human hepatic-cancer cells, Hep G2; experiment: Ex vivo survival assay (MTT) for anti-hepatic cancer effects, Hep G2; settings: for IC50 value lower than that of crude extracts from A. camphorata: Hep G2, relative to crude extracts (18.63 µg/ml); for IC50 ( µg/ml ) HepG2: Hep G2 cells, 48 hours incubation, MTT, 570 nm
Text: as §2

[6] = tested on: human prostate cancer cells, LNCaP; experiment: Ex vivo survival assay (MTT) for anti-prostate cancer effects, LNCaP; settings: for IC50 ( µg/ml ) LNCaP: LNCaP cells, 48 hours incubation, MTT, 570 nm; for IC50 value lower than the IC50 value of the control group: LNCaP, relative to control group (11.49 µg/ml)
Text: (§3) MTT assay is commonly used to determine cell proliferation, percent of viable cells, and cytotoxicity. 3-[4,5-dimethylthiazol-2-yl]2,5-diphenyltetrazolium bromide (MTT) is a yellow dye, which can be absorbed by the living cells and be reduced to purplish blue formazan crystals by succinate tetrazolium reductase in mitochondria. Formazan formation can therefore be used to assess and determine the survival rate of cells.
(§4) The NCI anti-cancer drug screen model was also employed to test the anti-cancer effect of the Antroquinonols in the present invention. Antroquinonol B and Antroquinonol C isolated from […] were added into the culture media of human prostate cancer cells, LNCaP or DU-145, and prostate cancer cell survival rates were analyzed with the abovementioned MTT assay. LNCaP is originated from epithelial cells of prostate gland, which depends on androgen in the early stage and thus is androgen-dependent cancer cell. […] This recurrent type prostate cancer has no effective treatment so far. Both LNCaP and DU-145 were ordered from NHRI with accession numbers of CCRC 60088 and CCRC 60348 respectively.
(§5) The human prostate-cancer cells, LNCaP and DU-145, were cultivated in media containing fetal calf serum for 24 hours. The proliferated cells were washed once with PBS, then treated with 1x trypsin-EDTA and centrifuged at 1200 rpm for 5 minutes. The supernatant was discarded and the cell pellet was resuspended in 10 ml of fresh culture medium by gently shaking. The cells were placed in a 96-well plate. Total ethanol extracts of Antrodia camphorata without purification (the control group), Antroquinonol B or Antroquinonol C (the experimental group) were added into each of the 96 wells at the following concentrations: 30, 10, 3, 1, 0.3, 0.1 and 0.03 µg/ml, respectively. The cells were incubated at 37°C in a 5% CO2 incubator for 48 hours. MTT was added in a concentration of 2.5 mg/ml into each well in dark and incubated for 4 hours, followed by the addition of 100 µl of lysis buffer to stop the reaction. The plates were read on an ELISA reader at wavelength of 570 nm to determine the survival rates. Table 4 Results of ex vivo survival assay for inhibition of prostate cancer cells

[7] = tested on: human prostate cancer cells, DU-145; experiment: Ex vivo survival assay (MTT) for anti-prostate cancer effects, DU-145; settings: for IC50 value lower than the IC50 value of the control group: DU-145, relative to control group (41.39 µg/ml); for IC50 ( µg/ml ) DU-145: DU-145 cells, 48 hours incubation, MTT, 570 nm
Text: as §3, §4, §5

| Compound | IC50 value lower than that of crude extracts from A. camphorata [1] [%] | IC50(µg/ml) MCF-7 [1] [µg/mL] | IC50 value lower than that of crude extracts from A. camphorata [2] [%] | IC50(µg/ml) MDA-MB-231 [2] [µg/mL] | IC50 value lower than that of crude extracts from A. camphorata [3] [%] | IC50 ( µg/ml ) A549 [3] [µg/mL] | IC50 ( µg/ml ) Hep3B [4] [µg/mL] | IC50 value lower than that of crude extracts from A. camphorata [4] [%] | IC50 value lower than that of crude extracts from A. camphorata [5] [%] | IC50 ( µg/ml ) HepG2 [5] [µg/mL] | IC50 ( µg/ml ) LNCaP [6] [µg/mL] | IC50 value lower than the IC50 value of the control group [6] [%] | IC50 value lower than the IC50 value of the control group [7] [%] | IC50 ( µg/ml ) DU-145 [7] [µg/mL] |
| --- | --- | --- | --- | --- | --- | --- | --- | --- | --- | --- | --- | --- | --- | --- |
| COC1=C(OC)[C@H](O)[C@H](C/C=C(\C)CC/C=C(/C)C/C=C/C(C)(C)O)[C@@H](C)C1=O [Antroquinonol B] | 82.56 | 1.94 (≈ 4.77 µM) | 66.21 | 8.72 (≈ 21.4 µM) | 9.92 | 11.9 (≈ 29.3 µM) | 1.21 (≈ 2.98 µM) | 76.27 | 82.18 | 3.32 (≈ 8.17 µM) | 5.67 (≈ 13.9 µM) | 50.65 | 75.55 | 10.12 (≈ 24.9 µM) |
| Antroquinonol C | 89.49 | 1.17 | 15.15 | 21.9 | 37.85 | 8.21 | 1.32 | 74.12 | 72.52 | 5.12 | 8.72 | 24.11 | 70.5 | 12.21 |
